Consider 6 compounds from patent publication US20120021432A1, “Phosphorylated NF45 Biomarkers, Antibodies And Methods Of Using Same” (ArQule, Inc., priority 2010, published 2012).

In series [1] the test system is pNF45 (T388). The series can be described thus: Effect of ATM and DNA-PK inhibitors on NF45 phosphorylation by β-Lapachone in MIA PaCa-2 cells (Western blot). It counts as cell-based, human. The conditions noted are these: then β-Lapachone 4 μM 8 hrs in presence of inhibitor. The text has this:
(§1) Immunoprecipitation and Western Blot Analysis: Cell lysate was used for immunoprecipitation using anti-NF90 antibody (#612154, BD Biosciences) or IgG as negative control. Samples then were separated into two equal potions: one blotted with anti-pNF45(T388)(#438) and another for anti-NF45 (K-22) (sc-133817, Santa Cruz Biotechnology). Other antibodies used in this study are pATM(S1981)(# 200-301-400, Rockland), DNA-PKcs (MA-370-P0, Thermo Scientific), ATM(2C1) (GTX70103, GeneTex), DNA-PK (S2506) (ab18192, Abcam), DNA-PK (T2609) (ab18356, Abcam), pCHK2(T68) (#2661, CST), b-actin (#5441, Sigma), g-H2AX (A300-081A, Bethyl).
(§2) β-Lapachone-induced phosphorylation of NF45 is ATM- and DNA-PK-dependent: MIA PaCa-2 cells were pretreated with or without ATM inhibitor KU55933 (10 μM), or DNA-PK inhibitor NU7026 (20 μM), for 1 hr and then treated with β-Lapachone (4 μM) (“Agent A”) for 8 hrs in the presence of inhibitors. Western blot analysis was performed using specific antibodies.
A general note: A western blot detects proteins with antibodies after separation by electrophoresis.

Series [2] deals with pNF45 (T388). The series can be described thus: Western blot analysis for pNF45 (T388) in MIA PaCa-2 cells. To be noted: for time course of NF45 phosphorylation / induction of NF45 phosphorylation, pNF45 (T388): MIA Paca-2 cells; for time course of NF45 phosphorylation: up to 24 hrs; for induction of NF45 phosphorylation, pNF45 (T388): various times. The format is cell-based, human.
Description: Cell culture and chemicals: MIA PaCa-2 cells were maintained in DMEM medium supplemented with 10% FBS. β-Lapachone and (S)-1′-(3-(4-(tert-butyl)phenoxy)-2-hydroxypropyl)-2H-spiro[naphtho[1,2-b][1,4]oxathiine-3,4′-piperidine]-5,6-dione were synthesized by ArQule, Inc. Doxorubicin, cisplatin, camptohethcin and NU7026 (DNA-PK inhibitor) were purchased from Sigma. KU55933 (ATM inhibitor) was purchased from EMD Chemicals.
Antibody generation: Anti-pNF45 (T388) antibody was generated by Covance (Norwood, Mass.). Briefly, a peptide corresponding to amino acids 383 to 390 (EESME-T-QE) (SEQ ID NO: 2) of NF45 was phosphorylated at threonine 388 in vitro and then conjugated with KHL. Polyclonal antibody was produced from rabbit and passed through affinity column with unphosphorylated peptide and then purified through the column with phosphorylated peptide. Two batches of antibody were obtained: #438 and #439. All the experiments were carried out using #438. Monoclonal antibody are generated by utilizing SEQ ID NO:2 and the hybridoma method known in the art and described herein.
as §1
Knockdown of NF45: Cells were transfected with NF45 On-target plus SMART pool (L-017599-00-0005, Thermo Fisher) or On-Target plus Control siRNA (200 nM, #D-001810-0X, Thermo Fisher) using Oligofectamine (#12252-011, Invitrogen). Cells were used for further examination after 48 hr post transfection.
Threonine Phosphorylation of pNF45 in MIA PaCa-2 Cells is Responsive to β-Lapachone: MIA PaCa-2 cells were treated with or without β-Lapachone (4 μM) (“Agent A”) for 8 hrs and cell lysate was subjected to western blot analysis for the detection of pNF45(T388). […] Samples were then separated into two portions: one for detection of pNF45 (T388) and another for detection of total NF45. C. Cells were transfected with NF45 siRNA or control siRNA and then treated with or without β-Lapachone (4 μM) for 8 hrs.
Time- and concentration-dependent pNF45 (T388) in response to β-Lapachone in MIA PaCa-2 cells: MIA PaCa-2 cells were treated with β-Lapachone (4 μM) (“Agent A”) for various times (A), or for 2 hrs at various concentrations of β-Lapachone (B). Western blot analysis was performed for the detection of pNF45 (T388) and NF45. […] Early induction of pNF45 (T388) was observed within 1 hr and reached peak level between 4 to 8 hrs.
Effect of DNA damage agents on phosphorylation of NF45: To determine whether other DNA damage agents are able to regulate NF45, we treated MIA Paca-2 cells with or without doxorubicin (1 μM), cisplatin (10 μM) or camptothecin (10 μM) for various times. pNF45 (T388) was examined by western blot analysis.

Another series deals with g-H2AX. The series can be described thus: g-H2AX elevation in treated cells. The format is cell-based.
Description: as §1

The test system of series [3] is human ovarian cancer, human prostate cancer, human breast cancer, human multiple myeloma. To be noted: single agent, xenotransplant mouse models; cited from earlier work.
Series [4] relates to Human breast and ovary carcinoma. To be noted: cited from earlier work.
The test system of series [5] is cancer cells from a variety of tissues; normal cells from these tissues. To be noted: cited from earlier work.
For series [6] the following is noted: cited from earlier work.
A further series has as its system DNA topoisomerase II. The conditions noted are these: cited from earlier work.
The next series deals with CHK2. In words: CHK2 phosphorylation in treated cells. It counts as cell-based.
Description: as §1

In the next series the test system is ATM. The series can be described thus: Western blot, activation of ATM in β-Lapachone treated cells. The format is cell-based, human. The conditions noted are these: MIA PaCa-2 cells, coincides with induction of pNF45 (T388).
Description: as §1, §2

Series [7] deals with human prostate and promyelocytic leukemia cancer cell lines. To be noted: cited from earlier work.
In the next series the test system is DNA-PK. The series can be described thus: Western blot, activation of DNA-PK in β-Lapachone treated cells. The format is cell-based, human. To be noted: MIA PaCa-2 cells, coincides with induction of pNF45 (T388).
Description: as §1, §2

The test system of series [8] is pNF45 (T388). In words: Immunofluorescence staining of pNF45 (T388) in MIA PaCa-2 cells. It counts as cell-based, human. How it is done:
Immunofluorescent Staining: Cells were seeded in 8-well chamber slides and treated with or without β-Lapachone for various time periods and then fixed with 4% paraformaldhyde. pNF45 was detected using anti-pNF45(T388) antibody, and NF45 using anti-NF45 (K-22) antibody. Slides were mounted using Vectashield Mounting Medium with DAPI (#H-1200, Vector Laboratories) and images were obtained using Zeiss fluorescence microscope.
Immunofluorescence staining pNF45 (T388) in response to β-Lapachone: MIA PaCa-2 cells were plated in 8-well chamber slides and treated with β-Lapachone (4 μM) (“Agent A”) for various times. Cells were fixed and stained for either pNF45 (A) or NF45 (B).

As to `O=c1cc(-c2cccc3c2Sc2ccccc2S3)oc(N2CCOCC2)c1` [KU55933], the “effect of ATM inhibitor on β-Lapachone-induced phosphorylation of NF45” value with pNF45 (T388) [1] (inhibitor 10 μM pretreated 1 hr) is “phosphorylation of NF45 induced by β-Lapachone is ATM and DNA-PK dependent”.
For the compound `O=c1cc(N2CCOCC2)oc2c1ccc1ccccc12` [NU7026], the “effect of DNA-PK inhibitor on β-Lapachone-induced phosphorylation of NF45” value in the series on pNF45 (T388) [1] (inhibitor 20 μM pretreated 1 hr) is “phosphorylation of NF45 induced by β-Lapachone is ATM and DNA-PK dependent”.
As to `CC[C@@]1(O)C(=O)OCc2c1cc1n(c2=O)Cc2cc3ccccc3nc2-1` [camptothecin], in the series on pNF45 (T388) [2] (10 μM), the “time course of NF45 phosphorylation” value was “steadily increased up to 24 hrs” and the “induction of NF45 phosphorylation, pNF45 (T388)” value is on record as “induced NF45 phosphorylation”.
Turning to `N.N.[Cl][Pt][Cl]` [cisplatin], in the series on pNF45 (T388) [2] (10 μM), the “induction of NF45 phosphorylation, pNF45 (T388)” value was “not cisplatin induced NF45 phosphorylation”.
Turning to `COc1cccc2c1C(=O)c1c(O)c3c(c(O)c1C2=O)C[C@@](O)(C(=O)CO)C[C@@H]3O[C@H]1C[C@H](N)[C@H](O)[C@H](C)O1` [doxorubicin], in the series with pNF45 (T388) [2] (1 μM), the “time course of NF45 phosphorylation” value is recorded as “steadily increased up to 24 hrs” and the “induction of NF45 phosphorylation, pNF45 (T388)” value was “induced NF45 phosphorylation”.
Consider `CC1(C)CCC2=C(O1)c1ccccc1C(=O)C2=O` [β-Lapachone, 3,4-dihydro-2,2-dimethyl-2H-naphtho[1,2-b]pyran-5,6-dione], for which the g-H2AX level result in the series on g-H2AX is recorded as “g-H2AX elevation”. In addition, the “number of tumors, tumor size, survival time” value in series [3] is given as “decrease the number of tumors, reduce tumor size, or increase the survival time, or a combination of these”. Further, the cytotoxic effect result in series [4] is recorded as “showed sensitivity of the cytotoxic effect of β-Lapachone without signs of apoptosis”. The “cell death in cancer cells versus normal cells” value in [5] is on record as “induces cell death in cancer cells from a variety of tissues without causing death of normal cells from these tissues”. For the same compound, the water solubility result in series [6] is recorded as “non-water soluble”. Further, in the series on DNA topoisomerase II, the “inhibition of DNA topoisomerase II” value was “inhibits DNA topoisomerase II”. For the same compound, the CHK2 phosphorylation result in the series with CHK2 is “CHK2 phosphorylation”. Also, in the series with pNF45 (T388) [2] (MIA PaCa-2 cells, 4 μM), the “time of early induction of pNF45 (T388)” value is on record as at most 1 hr. Also, the “time and concentration dependence of pNF45 (T388) induction” value in the series on pNF45 (T388) [2] (MIA PaCa-2 cells, 4 μM for various times, or 2 hrs at various concentrations) is “time- and concentration-dependent manner”. In the series with pNF45 (T388) [2] (MIA PaCa-2 cells, 4 μM, 8 hrs), the “induction of pNF45 (T388)” value was “induced pNF45 (T388)”. Also, the “activation of ATM” value with ATM is recorded as “activation”. Besides, the “induction of cell death” value in [7] is listed as “induces cell death with characteristics of apoptosis”. Also, the “activation of DNA-PK” value in the series on DNA-PK was “activation”. Also, in the series with pNF45 (T388) [8] (MIA PaCa-2 cells, 4 μM), the “cellular location of induced pNF45 (T388)” value is “primarily located in nuclei”. Besides, in the series on pNF45 (T388) [8] (MIA PaCa-2 cells, 4 μM, various times), the “time of induction of pNF45 (T388), immunofluorescence” value is at most 2 hrs. Moreover, the “pNF45 (T388) levels, immunofluorescence staining” value in the series on pNF45 (T388) [8] (β-Lapachone treated cells, pNF45 (T388) antibody) is listed as “significant increase”.
